The source of these data is patent publication EP1410783B1, “Foaming compositions” (Beiersdorf AG, priority 2001, dated 2003).

The first series in a line: Polarity of lipids (no method described). The settings on record: further lipids with polarity ≥ 30 mN/m, listed by INCI name. Type of series: physicochemical.
On to `CCCCCCCCOC(=O)CCCCCCCCCCCCCCC(C)C` [Octyl Isostearate], for which the Polarität is 31,6 mN/m. Same read-out and setting: next, Isoeikosan: 41,9 mN/m; `CCCCC(CC)COC(=O)CCCCCC(C)C` (stereo not drawn) [2- Ethylhexyl Isononanoate]: 31,0 mN/m; `CCCCCCCC/C=C\CCCCCCCC(=O)OCCOCCOCC` [Ethoxydiglycol Oleate]: 40,5 mN/m.

Take `CC(CCOC(=O)CC(C)CC(C)(C)C)CC(C)(C)C` (stereo not drawn) [Trimethylhexyl Isononanoate]: the Polarität is reported as 31,1 mN/m. The same measure, in the same setting: then Dioctylcyclohexane, with 39,0 mN/m; and Isocetyl Palmitate, with 36,2 mN/m; and `CCCCCCCCCCCCCC(C)C` [Isohexadecane], with 43,8 mN/m.

Staying with this series, now noted: lipids of the oil phase with polarity ≤ 30 mN/m, listed by manufacturer, trade name and INCI name.
As for “Isotridecyl 3,5,5 Trimethylhexanonanoate [Dermol 139]”, the Polarität is recorded as 24,5 mN/m.

For Phenyl Trimethicone [Silikonöl VP 1120], the Polarität is reported as 22,7 mN/m. On to `CC(C)CCCCCCCOC(=O)CC(C)CC(C)(C)C` (stereo not drawn) [Dermol 109, Isodecyl 3,5,5 Trimethyl Hexanoate], for which the Polarität is given as 29,1 mN/m. The same measure, in the same setting: then `CC(C)CCCCCCCOC(=O)C(C)(C)C` [DUB VCI 10, Isodecyl Neopentanoate], with 29,9 mN/m; and `CCCCCCCCCCC(CO)CCCCCCCC` (stereo not drawn) [Eutanol G, Octyldodecanol], with 24,8 mN/m; and `CCCCOC(=O)CCCCC(=O)OCCCC` [Cetiol B, Dibutyl Adipate], with 14,3 mN/m.

Consider “Cyclopolydimethylsiloxan [Dow Corning Fluid 244]”, for which the Polarität was 28,5 mN/m. On to `CCCCCCCCCCCCCCCCCC(=O)OC(C)C` [Isopropylstearat, Isopropyl Stearate], for which the Polarität is 21,9 mN/m. On to `CCCCCCCCC(CO)CCCCCC` (stereo not drawn) [Isofol 16, Hexyl Decanol], for which the Polarität is listed as 24,3 mN/m. The same measure, in the same setting: next, `CCCCCCCCCCCCCCCCCCOC(=O)CCCCCC` [Tegosoft SH, Stearyl Heptanoate]: 17,8 mN/m.

As for `CCCCCCCC(=O)OCCCCCCCC(C)C` [Dermol 108, Isodecyl Octanoate], the Polarität is on record as 29,6 mN/m. Still for that read-out and setting: then `CCCCCCC(CCCC)C(=O)O` (stereo not drawn) [Isocarb 12, Butyl Octanoicacid], with 22,1 mN/m; and `CCCCCCOCCCCCC` [Dihexyl Ether], with 29,2 mN/m.

Turning to Triisostearin [Prisorine 2041 GTIS], the Polarität was 2,4 mN/m. On the same count and under the same terms, next, `CCCCCCCCCCCCCC(=O)OCC(CCCCCCCC)CCCCCCCCCC` (stereo not drawn) [M.O.D., Octyldodeceyl Myristate]: 22,1 mN/m.

As to PEG 2 Diethylenhexanoate [Dermol 488], the Polarität is 10,1 mN/m.

Turning to Cetearyl Isononanoate [Cetiol SN], the Polarität was 28,6 mN/m.

Consider `CCCCCCC(CO)CCCC` (stereo not drawn) [Isofol 12, Butyl Octanol], for which the Polarität is 17,4 mN/m. Regarding `CCCCCCCCCC(=O)OCCCC(C)C` [Dermol IHD, Isohexyldecanoate], the Polarität is 29,7 mN/m. Consider Cyclomethicone [DC Fluid 345], for which the Polarität is 28,5 mN/m. The same measure, in the same setting: next, `CCCCCCCC(=O)OCC(COC(=O)CCCCCCC)OC(=O)CCCCCCC` [Trivent OCG, Tricaprylin]: 20,2 mN/m; `CCCCC(CC)C(=O)OCCC(C)CC(C)(C)C` (stereo not drawn) [Dermol 98, 2-Ethylhexanosäure 3,5,5 Trimethylester]: 26,2 mN/m.
